Data from patent US9925189B2, “Heterocyclic receptor agonists for the treatment of diabetes and metabolic disorders” (CymaBay Therapeutics, Inc., priority 2006, dated 2018).

target: T1, IC-GPCR2 (Homo sapiens, UniProt Q8TDV5, S309L); assay: Stimulation of cAMP in CHO cells stably expressing IC-GPCR2 (HTRF cAMP assay); assay type: cell-based; settings: 0.5 h, 30 minutes, IC-GPCR2 stably expressing CHO cells, read-out: Activity at 10 uM (% change in FRET signal from DMSO control)
T1 construct: expressed in transfected cells
T1 sequence (Q8TDV5 1-335 S309L): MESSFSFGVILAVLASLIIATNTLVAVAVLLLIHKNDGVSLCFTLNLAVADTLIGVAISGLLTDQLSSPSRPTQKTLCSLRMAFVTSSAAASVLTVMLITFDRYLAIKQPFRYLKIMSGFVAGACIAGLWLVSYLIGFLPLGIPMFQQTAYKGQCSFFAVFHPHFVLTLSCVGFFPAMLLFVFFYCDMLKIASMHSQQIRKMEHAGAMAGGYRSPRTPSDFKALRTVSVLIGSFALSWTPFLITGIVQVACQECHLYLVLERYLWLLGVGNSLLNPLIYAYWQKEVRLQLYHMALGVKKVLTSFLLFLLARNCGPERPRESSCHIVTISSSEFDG
Experimental: This assay was developed using a stable cell line expressing IC-GPCR-2, generated as follows. IC-GPCR2 (SEQ ID NO:1) was cloned into Gateway pDEST 40vector (Invitrogen), using the Gateway cloning system (invitrogen) according to the manufacturer's instructions. A stable cell line was generated by transfecting a 10 cm plate of CHO cells (source) with 8 ug of this construct using Transit-CHO transfection kit (Mirus). CHO cells were plated the day prior to transfection at a density of 3,000,000 cells/plate. Clones were selected using the antibiotic G418 at 500 ug/ml. 23 clones were picked and assayed for the expression of the receptor by measuring changes in intracellular cAMP levels in response to an IC-GPCR2 agonist.
To measure cAMP activity in response to IC-GPCR2 agonist, the clones were plated in 96 well plates at 17500 cells per well. On the day after plating, cells were incubated with the IC-CPCR2 agonist at […] for 30 minutes in Ham's F12 Media (Gibco) with 0.04% DMSO. cAMP was measured using the cAMP dynamic kit from Cis Bio (Bedford, Mass.) according to the manufacturer's instructions. Briefly, cells were lysed, and cAMP levels determined by competitive immunoassay using D2 labeled cAMP, and europium cryptate tagged anti cAMP antibody. When in close proximity, the D2 and europium cryptate undergo fluorescence resonance energy transfer (FRET), which is measured as a fluorescence ratio (665 nm/620 nm). Unlabelled cAMP in the cell lysate competed with the D2 labeled cAMP for the europium crypate labeled antibody. The resulting decrease in FRET signal corresponded to intracellular cAMP levels. Fluorescence was read on a BMG Labtech PHERAstar, software version 1.50.
Compounds were dissolved in 100% DMSO to a concentration of […] to provide stock solutions. To determine activity against IC-GPCR2, compounds were incubated with IC-GPCR2 stably expressing cells (described above), at 6-8 concentrations ranging from 0.00003 to 10 micromolar, in 96 well plates, in 50 ul of Hams F12 media for 30 minutes. Cells were plated at 17500 cells per well 1 day before running the assay. All compounds were also screened against the parental CHO cells. cAMP was measured using the cAMP dynamic kit from Cis Bio (Bedford, Mass.), according to the manufacturer's instructions. Briefly, cells were lysed and cAMP levels determined by competitive immunoassay using D2 labeled cAMP, and europium cryptate tagged anti cAMP antibody. When in close proximity, the D2 and europium cryptate undergo fluorescence resonance energy transfer (FRET), which is measured as a fluorescence ratio (665 nm/620 nm). Unlabelled cAMP in the cell lysate competed with the D2 labeled cAMP for the europium crypate labeled antibody. The resulting decrease in FRET signal corresponded to intracellular cAMP levels.
Activities of compounds disclosed in Table 1 and Table 2 below are expressed as the % change in FRET signal from DMSO control. “*” no activity observed when tested at 10 micromolar but no higher concentrations were tested. NT indicates the compound was not tested at the indicated concentration.

Structure (SMILES)	activation at 10 µM
COc1ccc(OC(=O)N2CCC(c3nc(COc4ccc(S(C)(=O)=O)cc4)cs3)CC2)cc1 [Example 28, 4-[4-(4-Methanesulfonyl-phenoxymethyl)-thiazol-2-yl]-piperidine-1-carboxylic acid 4-methoxy-phenyl ester]	62%
CCc1cnc(N2CCC(F)(c3ncc(COc4ccc(S(C)(=O)=O)cc4)s3)CC2)nc1 [Example 90, 5-Ethyl-2-{4-fluoro-4-[5-(4-methanesulfonyl-phenoxymethyl)-thiazol-2-yl]-piperidin-1-yl}-pyrimidine]	64%
CC(C)(C)OC(=O)N1CCC(c2nc(CNCc3ccc(S(C)(=O)=O)cc3)cs2)CC1 [Example 142, 4-{4-[(4-Methanesulfonyl-benzylamino)-methyl]-thiazol-2-yl}-piperidine-1-carboxylic acid tert-butyl ester]	78%
CC(C)[C@@H]1CC[C@@H](C)C[C@H]1OC(=O)N1CCC(c2nc(COc3ccc(-n4cnnn4)cc3)cs2)CC1 [Example 38, 4-[4-(4-Tetrazol-1-yl-phenoxymethyl)-thiazol-2-yl]-piperidine-1-carboxylic acid 2-isopropyl-5-methyl-cyclohexyl ester]	39%
C[C@H]1CN(c2ncc(C(F)(F)F)cn2)CC[C@H]1c1nc(COc2ccc(-n3cnnn3)cc2F)cs1 (stereo in doubt) [Example 202, 2-{4-[4-(2-Fluoro-4-tetrazol-1-yl-phenoxymethyl)-thiazol-2-yl]-3-methyl-piperidin-1-yl}-5-trifluoromethyl-pyrimidine]	83%
O=C(OCCOCc1ccccc1)N1CCC(c2nc(COc3ccc(-n4cnnn4)cc3)cs2)CC1 [Example 37, 4-[4-(4-Tetrazol-1-yl-phenoxymethyl)-thiazol-2-yl]-piperidine-1-carboxylic acid 2-benzyloxy-ethyl ester]	80%
CCCCN1CCC(c2nc(COc3ccc(-n4cnnn4)cc3)cs2)CC1 [Example 152, 1-Butyl-4-[4-(4-tetrazol-1-yl-phenoxymethyl)-thiazol-2-yl]-piperidine]	68%
CC(C)(C)OC(=O)N1CCC(c2nc(COc3ccc(S(=O)(=O)C(F)(F)F)cc3)cs2)CC1 [Example 110, 4-[4-(4-Trifluoromethanesulfonyl-phenoxymethyl)-thiazol-2-yl]-piperidine-1-carboxylic acid tert-butyl ester]	51%
CC(C)OC(=O)N1CCC(c2nc(COc3ccc(S(C)(=O)=O)cc3)cs2)CC1 [Example 22, 4-[4-(4-Methanesulfonyl-phenoxymethyl)-thiazol-2-yl]-piperidine-1-carboxylic acid isopropyl ester]	62%
CC(C)(C)COC(=O)N1CCC(c2nc(COc3ccc(-n4cnnn4)cc3)cs2)CC1 [Example 34, 4-[4-(4-Tetrazol-1-yl-phenoxymethyl)-thiazol-2-yl]-piperidine-1-carboxylic acid 2,2-dimethyl-propyl ester]	70%
CC(C)(C)OC(=O)N1CCC(O)(c2nc(COc3ccc(S(C)(=O)=O)cc3)cs2)CC1 [Example 86, 4-Hydroxy-4-[4-(4-methanesulfonyl-phenoxymethyl)-thiazol-2-yl]-piperidine-1-carboxylic acid tert-butyl ester]	49%
CCc1cnc(N2CCC(F)(c3nc(COc4ccc(S(C)(=O)=O)cc4)cs3)CC2)nc1 [Example 88, 5-Ethyl-2-{4-fluoro-4-[4-(4-methanesulfonyl-phenoxymethyl)-thiazol-2-yl]-piperidin-1-yl}-pyrimidine]	49%
CC(C)(C)OC(=O)N1CCC(c2nc(COc3ccc(-n4cnnn4)c(F)c3)cs2)CC1 [Example 17, 4-[4-(3-Fluoro-4-tetrazol-1-yl-phenoxymethyl)-thiazol-2-yl]-piperidine-1-carboxylic acid tert-butyl ester]	69%
CCOC(=O)CC(=O)N1CCC(c2nc(COc3ccc(-n4cnnn4)cc3)cs2)CC1 [Example 43, 3-Oxo-3-{4-[4-(4-tetrazol-1-yl-phenoxymethyl)-thiazol-2-yl]-piperidin-1-yl}-propionic acid ethyl ester]	47%
COC(=O)N1CCC(c2nc(COc3ccc(S(C)(=O)=O)cc3)cs2)CC1 [Example 26, 4-[4-(4-Methanesulfonyl-phenoxymethyl)-thiazol-2-yl]-piperidine-1-carboxylic acid methyl ester]	58%

The next lines start with the values.

activation at 10 µM	Structure (SMILES)
82%	CCc1cnc(N2CC[C@@H](c3nc(COc4ccc(-n5cnnn5)cc4F)cs3)[C@@H](C)C2)nc1 (stereo in doubt) [Example 200, 5-Ethyl-2-{4-[4-(2-fluoro-4-tetrazol-1-yl-phenoxymethyl)-thiazol-2-yl]-3-methyl-piperidin-1-yl}-pyrimidine]
75%	FC(F)(F)c1cnc(N2CCC(c3nc(COc4ccc(-n5cnnn5)cc4)cs3)CC2)nc1 [Example 205]
77%	CCc1cnc(N2CCC(c3nc(COc4ccc(-n5cccc5)cc4)cs3)CC2)nc1 [Example 160, 5-Ethyl-2-{4-[4-(4-pyrrol-1-yl-phenoxymethyl)-thiazol-2-yl]-piperidin-1-yl}-pyrimidine]
77%	CCCCc1cnc(N2CCC(c3nc(COc4ccc(-n5cnnn5)cc4)cs3)CC2)nc1 [Example 190, 5-Butyl-2-{4-[4-(4-tetrazol-1-yl-phenoxymethyl)-thiazol-2-yl]-piperidin-1-yl}-pyrimidine]
75%	c1cc(-n2cnnn2)ccc1OCc1csc(C2CCN(c3cnc(-n4cnnn4)cn3)CC2)n1 [Example 187, 2-Tetrazol-1-yl-5-{4-[4-(4-tetrazol-1-yl-phenoxymethyl)-thiazol-2-yl]-piperidin-1-yl}-pyrazine]
53%	COc1cnc(N2CCC(c3nc(COc4ccc(-n5cnnn5)cc4)cs3)CC2)nc1 [Example 68, 5-Methoxy-2-{4-[4-(4-tetrazol-1-yl-phenoxymethyl)-thiazol-2-yl]-piperidin-1-yl}-pyrimidine]
78%	Cc1cnc(N2CCC(c3nc(COc4ccc(-n5cnnn5)nc4)cs3)CC2)nc1 [Example 183, 5-Methyl-2-{4-[4-(6-tetrazol-1-yl-pyridin-3-yloxymethyl)-thiazol-2-yl]-piperidin-1-yl}-pyrimidine]
55%	CCc1cnc(N2CCC(c3nc(COc4ccc5sc(=O)oc5c4)cs3)CC2)nc1 [Example 15, 6-{2-[1-(5-Ethyl-pyrimidin-2-yl)-piperidin-4-yl]-thiazol-4-ylmethoxy}-benzo[1,3]oxathiol-2-one]
60%	Clc1cnc(N2CCC(c3nc(COc4ccc(-n5cnnn5)cc4)cs3)CC2)nc1 [Example 60]
67%	CCc1cnc(N2CCC(c3nc(COc4ccc(-n5cnnn5)c(Cl)c4)cs3)CC2)nc1 [Example 115, 2-{4-[4-(3-Chloro-4-tetrazol-1-yl-phenoxymethyl)-thiazol-2-yl]-piperidin-1-yl}-5-ethyl-pyrimidine]
68%	Fc1cc(-n2cnnn2)ccc1OCc1csc(C2CCN(c3ncc(Cl)cn3)CC2)n1 [Example 195, 5-Chloro-2-{4-[4-(2-fluoro-4-tetrazol-1-yl-phenoxymethyl)-thiazol-2-yl]-piperidin-1-yl}-pyrimidine]

same assay, conditions: 30 minutes, IC-GPCR2 stably expressing CHO cells

Activity at 10 uM (% change in FRET signal from DMSO control)	Structure (SMILES)
67%	CCc1cnc(N2CCC(c3nc(COc4ccc(-n5cnnn5)cc4)cs3)CC2)nc1 [Example 52, 5-Ethyl-2-{4-[4-(4-tetrazol-1-yl-phenoxymethyl)-thiazol-2-yl]-piperidin-1-yl}-pyrimidine]
